Measured values taken from patent publication US20220389003A1, “4-SUBSTITUTED INDOLE AND INDAZOLE SULFONAMIDO DERIVATIVES AS PARG INHIBITORS” (IDEAYA BIOSCIENCES, INC., priority 2019, published 2022).

Legend:
PARG [1] = molecular target: T1, PARG (Homo sapiens, UniProt Q86W56); test: Inhibition of PARG enzymatic assay (TR-FRET enzymatic IC50 assay); type: biochemical; parameters: purchased Peak Proteins; settings: hPARG 250 pM, biotinylated-PARylated PARP substrate 30 nM
Method: PARG enzyme was incubated with compound or vehicle (DMSO) and the biotinylated-PARylated PARP substrate in a microtiter plate. After adding detection antibody and streptavidin-europium, and then incubating, the plate was read for fluorescence intensity. The low control (DMSO) with low fluorescence intensity represents no inhibition of enzymatic reaction while the high control (no enzyme) with high fluorescence intensity represents full inhibition of enzymatic reaction.
• PARG • hPARG: 250 pM, His-tagged, Peak Proteins, 0.96 mg/mL (8.58 μM) • Substrate: 30 nM • Reaction time: 70 minutes • Substrate: hPARP1, His- and TEV-tagged, Peak Proteins, 14 μM • Detection Antibody: anti-His monoclonal antibody-ULight, Perkin Elmer catalog #TRF0105-M • Streptavidin-Europium: Perkin Elmer catalog #AD0062 • Assay buffer: 50 mM Tris-HCl pH 7.4, 50 mM KCl, 3 mM EDTA, 0.4 mM EGTA, 1 mM DTT, 0.01% Tween 20, 0.01% BSA • Temperature: 23° C. • Total volume: 20 μL
• 0% inhibition control: DMSO • 100% inhibition control: No enzyme
• 1. Transfer 5 μL of 3× final concentration of test compounds or DMSO to the appropriate wells of a microtiter plate. • 2. Centrifuge the plate at 1000 rpm for 1 minute. • 3. Transfer 5 μL of 3× final concentration of enzyme in assay buffer or assay buffer alone to the appropriate wells. • 4. Centrifuge the plate at 1000 rpm for 1 minute. • 5. Incubate the plate at room temperature for 1 hour. • 6. Transfer 5 μL of 3× substrate in assay buffer to all the test wells. • 7. Centrifuge the plate at 1000 rpm for 1 minute. • 8. Incubate the plate at room temperature for 10 minutes. • 9. Transfer 5 μL of 3× mixture of detection antibody and streptavidin-europium in assay buffer to all the test wells. • 10. Centrifuge the plate at 1000 rpm for 1 minute. • 11. Incubate the plate at room temperature for 1 hour. • 12. Read the plate on a plate reader (e.g., Infinite M1000).

[2] = system: HCC1806-XRCC1 KD (knock down) cells; test: Cellular viability assay (Cell Titer-Glo); type: cell-based; settings: 96 h, HCC1806-shXRCC1 cells, 4 days of incubation, read-out: PARGi cell viability
Method: HCC1806-XRCC1 KD (knock down) cells were plated at 2000 cells/well in 96-well white plates with clear flat bottom. After 24 hours, the compounds of the disclosure were added starting at 30 μM for a 9-point dose response curve at 1:3 dilution. The compounds of the disclosure were added by Tecan digital dispenser excluding the outermost wells of the plate. All treatments were done in duplicates. After 4 days of incubation, 50 ul of Cell Titer-Glo (Promega) was added per well. After incubation with the reagent for 15 minutes, luminescence was read using a plate reader (TECAN). Average values of DMSO treated wells in a plate was calculated. All data points were normalized to that of the average DMSO value. The % of control for each sample compared to DMSO treated control samples. Curves are fit as % of control vs. log [compound concentration] using a 4 parameter inhibition model (Levenberg-Marquardt algorithm):
Fit=(A+((B−A)/(1+((C/x)^D))))

PARG [3] = molecular target: T1, PARG; test: Inhibition of PARG cellular assay (PAR foci in HeLa cells after MMS); type: cell-based; parameters: endogenous in cells; host or cells: HeLa; settings: compound 1 h then MMS 1 h
Method: The ability of the compounds disclosed herein to inhibit PARG was determined as described below. Briefly, after treating HeLa cells with the compounds of the disclosure for 1 h, followed by treatment with DNA alkylating agent methylmethanesulfonate (MMS) for an additional 1 h, the cells were fixed in 3.7% formaldehyde. The cells were permeabilized in 0.5% Triton-X100, blocked in 5% goat serum, and incubated with mouse monoclonal antibody against poly (ADP) ribose (PAR) polymer overnight at 4° C. The cells were washed and incubated with an Alexafluor 488-linked secondary antibody together with a nuclear stain (Hoechst 33342) for an hour at room temperature. After washing, images of the cells were captured and analyzed on a high content imaging microscope and software. Two measurement of PAR chain were quantified with the mean intensity over background of the nuclear foci (fluorescent signal at 488 nm range 0.3-2.0 μm foci) quantified as PAR foci (PAR Foci IC50). The cells with a PAR foci signal >1.3 was considered as positive (PAR % positive IC50), and the percentage positive cells are quantified.

T1 sequence (Q86W56 whole entry): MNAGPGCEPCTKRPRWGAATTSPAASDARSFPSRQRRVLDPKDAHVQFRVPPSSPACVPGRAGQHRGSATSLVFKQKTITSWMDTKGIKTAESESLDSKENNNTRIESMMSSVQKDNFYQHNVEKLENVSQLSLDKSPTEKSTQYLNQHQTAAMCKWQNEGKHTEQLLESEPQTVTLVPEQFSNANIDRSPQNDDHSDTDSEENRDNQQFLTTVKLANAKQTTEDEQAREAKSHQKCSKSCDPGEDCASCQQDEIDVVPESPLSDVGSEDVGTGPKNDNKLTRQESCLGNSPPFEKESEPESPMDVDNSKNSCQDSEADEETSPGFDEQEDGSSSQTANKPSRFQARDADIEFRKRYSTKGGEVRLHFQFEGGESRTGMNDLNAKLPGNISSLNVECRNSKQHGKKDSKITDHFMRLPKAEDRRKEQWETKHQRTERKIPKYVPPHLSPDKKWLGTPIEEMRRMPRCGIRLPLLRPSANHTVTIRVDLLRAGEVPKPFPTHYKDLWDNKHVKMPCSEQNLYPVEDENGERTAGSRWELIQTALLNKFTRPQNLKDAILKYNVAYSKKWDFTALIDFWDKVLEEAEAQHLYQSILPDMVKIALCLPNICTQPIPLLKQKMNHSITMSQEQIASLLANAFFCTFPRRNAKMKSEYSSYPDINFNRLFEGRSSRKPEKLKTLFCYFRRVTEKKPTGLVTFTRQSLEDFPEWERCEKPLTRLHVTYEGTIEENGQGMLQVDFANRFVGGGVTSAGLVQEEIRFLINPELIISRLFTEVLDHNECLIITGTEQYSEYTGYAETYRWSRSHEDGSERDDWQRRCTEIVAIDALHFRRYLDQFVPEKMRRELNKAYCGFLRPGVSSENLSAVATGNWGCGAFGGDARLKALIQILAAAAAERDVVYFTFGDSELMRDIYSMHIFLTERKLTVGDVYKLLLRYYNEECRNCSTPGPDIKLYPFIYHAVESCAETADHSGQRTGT

Row | IC50 (PARG [1]) | IC50 [2] | IC50 (PARG [3]) | SMILES
1 | 0.1 to 0.3 µM | 1 to 10 µM | 1 to 10 µM | CC(C)NS(=O)(=O)c1cc(N2CCN(C(=O)C(C)C)CC2)c2cnn(-c3nnc(C(F)F)s3)c2c1 [Example 98, 1-[4-(1-[5-(difluoromethyl)(1,3,4-thiadiazol-2-yl)]-6-{[(methylethyl)amino]sulfonyl}(1H-indazol-4-yl))piperazinyl]-2-methylpropan-1-one]
2 | ≤ 0.1 µM | 1 to 10 µM | 0.3 to 1 µM | N#CC1(NS(=O)(=O)c2cc(N3CCS(=O)(=O)CC3)c3cnn(-c4nnc(C(F)F)s4)c3c2)CC1 [Example 52, N-(1-cyanocyclopropyl)-1-(5-(difluoromethyl)-1,3,4-thiadiazol-2-yl)-4-(1,1-dioxidothiomorpholino)-1H-indazole-6-sulfonamide]
3 | 0.3 to 1 µM | 1 to 10 µM | 0.1 to 0.3 µM | Cc1cccnc1N1CCN(c2cc(S(=O)(=O)NC3(C#N)CC3)cc3c2cnn3-c2nnc(C(F)F)s2)CC1 [Example 79, 1-[({1-[5-(difluoromethyl)(1,3,4-thiadiazol-2-yl)]-4-[4-(3-methyl(2-pyridyl))-piperazinyl]-1H-indazol-6-yl}sulfonyl)amino]cyclopropanecarbonitrile]
4 | ≤ 0.1 µM | 1 to 10 µM | ≤ 0.1 µM | N#CC1(NS(=O)(=O)c2cc(N3CCN(C(=O)N4CCC4)CC3)c3cnn(-c4nnc(C(F)F)s4)c3c2)CC1 [Example 33, 1-[({4-[4-(azetidinylcarbonyl)piperazinyl]-1-[5-(difluoromethyl)(1,3,4-thiadiazol-2-yl)]-1H-indazol-6-yl}sulfonyl)amino]cyclopropanecarbonitrile]
5 | ≤ 0.1 µM | 1 to 10 µM | 0.3 to 1 µM | CC(=O)N1CCN(c2cc(S(=O)(=O)NC3(C#N)CC3)cc3c2cnn3-c2nnc(C(F)F)s2)CC1 [Example 50, 1-[({4-(4-acetylpiperazinyl)-1-[5-(difluoromethyl)(1,3,4-thiadiazol-2-yl)]-1H-indazol-6-yl}sulfonyl)amino]cyclopropanecarbonitrile]
6 | ≤ 0.1 µM | 1 to 10 µM | ≤ 0.1 µM | CC(C)C(=O)N1[C@H](C)CN(c2cc(S(=O)(=O)NC3(C#N)CC3)cc3c2cnn3-c2nnc(C(F)F)s2)C[C@@H]1C [Example 89, 1-[({4-[cis-3,5-dimethyl-4-(2-methylpropanoyl)piperazinyl]-1-[5-(difluoromethyl)-(1,3,4-thiadiazol-2-yl)]-1H-indazol-6-yl}sulfonyl)amino]cyclopropanecarbonitrile]
7 | ≤ 0.1 µM | 1 to 10 µM | ≤ 0.1 µM | N#CC1(NS(=O)(=O)c2cc(N3CCN(C(=O)C4CCCC4)CC3)c3cnn(-c4nnc(C(F)F)s4)c3c2)CC1 [Example 66, 1-[({1-[5-(difluoromethyl)(1,3,4-thiadiazol-2-yl)]-4-[4-(cyclopentylcarbonyl)piperazinyl]-1H-indazol-6-yl}sulfonyl)amino]cyclopropanecarbonitrile]
8 | ≤ 0.1 µM | < 1 µM | ≤ 0.1 µM | CN(CC(F)(F)F)C(=O)N1CCN(c2cc(S(=O)(=O)NC3(C#N)CC3)cc3c2cnn3-c2nnc(C(F)F)s2)CC1 [Example 86, [4-(1-[5-(difluoromethyl)(1,3,4-thiadiazol-2-yl)]-6-{[(cyanocyclopropyl)amino]sulfonyl}(1H-indazol-4-yl))piperazinyl]-N-methyl-N-(2,2,2-trifluoroethyl)carboxamide]
9 | ≤ 0.1 µM | < 1 µM | ≤ 0.1 µM | CC(C)C(=O)N1CCN(c2cc(S(=O)(=O)NC3(C#N)CC3)cc3c2cnn3-c2nnc(C(F)F)s2)C[C@H]1C [Example 82, 1-[({4-[(3R)-3-methyl-4-(2-methylpropanoyl)piperazinyl]-1-[5-(difluoromethyl) (1,3,4-thiadiazol-2-yl)]-1H-indazol-6-yl}sulfonyl)amino]cyclopropanecarbonitrile]
10 | ≤ 0.1 µM | < 1 µM | ≤ 0.1 µM | N#CC1(NS(=O)(=O)c2cc(N3CCN(C(=O)N4CCCC4)CC3)c3cnn(-c4nnc(C(F)F)s4)c3c2)CC1 [Example 57, 1-[({1-[5-(difluoromethyl)(1,3,4-thiadiazol-2-yl)]-4-[4-(pyrrolidinylcarbonyl)-piperazinyl]-1H-indazol-6-yl}sulfonyl)amino]cyclopropanecarbonitrile]
11 | ≤ 0.1 µM | 1 to 10 µM | 0.3 to 1 µM | N#CC1(NS(=O)(=O)c2cc(N3CCC(O)CC3)c3cnn(-c4nnc(C(F)F)s4)c3c2)CC1 [Example 27, 1-[({1-[5-(difluoromethyl)(1,3,4-thiadiazol-2-yl)]-4-(4-hydroxypiperidyl)-1H-indazol-6-yl}sulfonyl)amino]cyclopropanecarbonitrile]
12 | ≤ 0.1 µM | < 1 µM | ≤ 0.1 µM | CCC(C)C(=O)N1CCN(c2cc(S(=O)(=O)NC3(C#N)CC3)cc3c2cnn3-c2nnc(C(F)F)s2)CC1 (stereo not drawn) [Example 113, 1-[({1-[5-(difluoromethyl)(1,3,4-thiadiazol-2-yl)]-4-[4-(2-methylbutanoyl)piperazinyl]-1H-indazol-6-yl}sulfonyl)amino]cyclopropanecarbonitrile]
13 | ≤ 0.1 µM | 1 to 10 µM | 1 to 10 µM | CN1CCC(C(=O)N2CCN(c3cc(S(=O)(=O)NC4(C#N)CC4)cc4c3cnn4-c3nnc(C(F)F)s3)CC2)CC1 [Example 85, 1-{[(1-[5-(difluoromethyl)(1,3,4-thiadiazol-2-yl)]-4-{4-[(1-methyl(4-piperidyl))-carbonyl]piperazinyl}-1H-indazol-6-yl)sulfonyl]amino}cyclopropanecarbonitrile]
14 | 0.3 to 1 µM | 1 to 10 µM | 0.1 to 0.3 µM | Cc1ccncc1N1CCN(c2cc(S(=O)(=O)NC3(C#N)CC3)cc3c2cnn3-c2nnc(C(F)F)s2)CC1 [Example 84, 1-[({1-[5-(difluoromethyl)(1,3,4-thiadiazol-2-yl)]-4-[4-(4-methyl(3-pyridyl))piperazinyl]-1H-indazol-6-yl}sulfonyl)amino]cyclopropanecarbonitrile]
15 | – | 1 to 10 µM | 0.3 to 1 µM | N#CC1(NS(=O)(=O)c2cc(N3CCN(C=O)CC3)c3cnn(-c4nnc(C(F)F)s4)c3c2)CC1 [Example 49, 1-[({1-[5-(difluoromethyl)(1,3,4-thiadiazol-2-yl)]-4-(4-formylpiperazinyl)-1H-indazol-6-yl}sulfonyl)amino]cyclopropanecarbonitrile]
16 | – | < 1 µM | ≤ 0.1 µM | N#CC1(NS(=O)(=O)c2cc(N3CCN(C(=O)C4CCC4)CC3)c3cnn(-c4nnc(C(F)F)s4)c3c2)CC1 [Example 81, 1-[({1-[5-(difluoromethyl)(1,3,4-thiadiazol-2-yl)]-4-[4-(cyclobutylcarbonyl)piperazinyl]-1H-indazol-6-yl}sulfonyl)amino]cyclopropanecarbonitrile]

Row | SMILES | IC50 (PARG [1]) | IC50 [2] | IC50 (PARG [3])
17 | CC(C)C(=O)N1[C@@H]2CC[C@H]1CN(c1cc(S(=O)(=O)NC3(C#N)CC3)cc3c1cnn3-c1nnc(C(F)F)s1)C2 [Example 37, 1-[({4-[(1S,5R)-8-(2-methylpropanoyl)-3,8-diazabicyclo[3.2.1]oct-3-yl]-1-[5-(difluoromethyl)(1,3,4-thiadiazol-2-yl)]-1H-indazol-6-yl}sulfonyl)amino]cyclopropane carbonitrile] | – | 1 to 10 µM | ≤ 0.1 µM
